Assay results from ChEMBL document CHEMBL1201862, “PubChem BioAssay data set” (2004).
Values belong to the compound of their own block, whether it stands above or below them. Active and inactive are the calls of the source.

Columns and labels:
[1] = target: T1, Leucine aminopeptidase (Plasmodium falciparum 3D7, UniProt Q8IL11); test: P. falciparum M17LAP inhibitors, primary screen, biochemical, fluorogenic H-Leu-NHMec substrate, 1536-well (AID 1619); format: functional
T1 sequence (Q8IL11 whole entry): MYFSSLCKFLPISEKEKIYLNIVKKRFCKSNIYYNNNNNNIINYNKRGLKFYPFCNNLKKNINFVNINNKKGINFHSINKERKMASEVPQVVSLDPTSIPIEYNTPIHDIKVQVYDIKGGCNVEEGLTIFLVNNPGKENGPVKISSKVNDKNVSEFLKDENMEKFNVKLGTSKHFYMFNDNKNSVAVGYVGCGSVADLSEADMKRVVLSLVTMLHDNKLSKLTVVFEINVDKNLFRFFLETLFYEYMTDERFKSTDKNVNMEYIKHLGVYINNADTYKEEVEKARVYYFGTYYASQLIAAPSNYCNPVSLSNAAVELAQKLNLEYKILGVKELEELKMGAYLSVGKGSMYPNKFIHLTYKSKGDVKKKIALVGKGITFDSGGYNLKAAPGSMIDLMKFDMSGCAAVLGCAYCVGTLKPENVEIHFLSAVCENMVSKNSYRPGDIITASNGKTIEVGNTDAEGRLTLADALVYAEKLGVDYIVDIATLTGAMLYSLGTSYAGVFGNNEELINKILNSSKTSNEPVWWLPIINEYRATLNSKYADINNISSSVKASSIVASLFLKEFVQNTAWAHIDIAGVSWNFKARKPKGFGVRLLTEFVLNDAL

[2] = target: Ras and Rab interactor 1/Tyrosine-protein kinase ABL1 (Homo sapiens, UniProt P00519+Q13671); format: functional;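 further: biochemical TR-FRET dose-response test measuring inhibition of binding between Rin1 and Abl proteins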
[3] = target: T2, Phosphomannomutase 2 (Homo sapiens, UniProt O15305); test: Counter screen SAR assay for PMM2 inhibitors via a fluorescence intensity assay. [Related pubchem assays (depositor defined):AID1545, AID1574]
T2 sequence (O15305 whole entry): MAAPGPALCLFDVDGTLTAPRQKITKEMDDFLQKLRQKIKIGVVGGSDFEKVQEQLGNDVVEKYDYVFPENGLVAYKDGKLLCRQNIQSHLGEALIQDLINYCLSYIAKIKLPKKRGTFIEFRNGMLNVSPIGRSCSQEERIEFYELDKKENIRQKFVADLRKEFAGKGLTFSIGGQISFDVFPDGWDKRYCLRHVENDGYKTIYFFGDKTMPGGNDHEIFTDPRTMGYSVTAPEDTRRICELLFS

[4] = target: Genome polyprotein (dengue virus type 2, UniProt P29990); test: flavivirus cap methylation enzyme inhibition – biochemical, confirmation dose response, primary screen (AID 588689); format: functional
[5] = target: Endoplasmic reticulum aminopeptidase 1 (Homo sapiens, UniProt Q9NZ08); test: inhibition of human ERAP1 enzyme activity – biochemical, cherry-pick, set 2, plate reader, dose response (AID 743314)
[6] = target: Glucose-6-phosphate 1-dehydrogenase (Homo sapiens, UniProt P11413); test: inhibition of Homo sapiens G6PD, dose series – biochemical, fluorescence, selectivity assay for P. falciparum G6PD inhibitor project, dose response (AID 504792); format: functional
[7] = test system: Vero; test: viability of Vero cells under compound – cytotoxicity control for flavivirus capping enzyme inhibitors (AID 588742); format: functional; conditions: Chlorocebus sabaeus
[8] = target: T3, Orexin receptor type 2 (Homo sapiens, UniProt O43614); test: Counterscreen assay for antagonists of the orexin 1 receptor (OX1R; HCRTR1): Fluorescence-based cell-based dose response assay for antagonists of the orexin 2 receptor (OX2R; HCRTR2), run by assay provider.; format: functional
T3 sequence (O43614 whole entry): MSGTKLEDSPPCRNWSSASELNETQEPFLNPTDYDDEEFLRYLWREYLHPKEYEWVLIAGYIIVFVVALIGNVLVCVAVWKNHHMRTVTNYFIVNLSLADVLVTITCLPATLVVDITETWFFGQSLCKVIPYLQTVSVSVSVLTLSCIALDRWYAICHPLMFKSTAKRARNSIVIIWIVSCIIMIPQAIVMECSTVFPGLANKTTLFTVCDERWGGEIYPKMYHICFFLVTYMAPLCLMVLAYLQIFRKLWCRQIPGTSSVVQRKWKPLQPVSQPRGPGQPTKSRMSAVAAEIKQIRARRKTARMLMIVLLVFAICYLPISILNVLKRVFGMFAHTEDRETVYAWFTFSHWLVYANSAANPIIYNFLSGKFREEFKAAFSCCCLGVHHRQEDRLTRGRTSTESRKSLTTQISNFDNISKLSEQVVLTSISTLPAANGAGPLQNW

[9] = target: T3, Orexin receptor type 2; test: Counterscreen assay for antagonists of the orexin 1 receptor (OX1R; HCRTR1): Homogeneous Time Resolved Fluorescence (HTRF)-based cell-based dose response assay for antagonists of the orexin 2 receptor (OX2R; HCRTR2), run by assay provider.; format: functional
[10] = target: FAD-linked sulfhydryl oxidase ALR (Homo sapiens, UniProt P55789); test: ALR-catalysed DTT oxidation blockers – biochemical, H2O2 detection, luminescence, cherry-pick, dose response (AID 493248)
[11] = target: T4, Mannose-6-phosphate isomerase (Homo sapiens, UniProt P34949); test: phosphomannose isomerase inhibition – biochemical, fluorescence intensity, confirmation (AID 1535)
T4 sequence (P34949 whole entry): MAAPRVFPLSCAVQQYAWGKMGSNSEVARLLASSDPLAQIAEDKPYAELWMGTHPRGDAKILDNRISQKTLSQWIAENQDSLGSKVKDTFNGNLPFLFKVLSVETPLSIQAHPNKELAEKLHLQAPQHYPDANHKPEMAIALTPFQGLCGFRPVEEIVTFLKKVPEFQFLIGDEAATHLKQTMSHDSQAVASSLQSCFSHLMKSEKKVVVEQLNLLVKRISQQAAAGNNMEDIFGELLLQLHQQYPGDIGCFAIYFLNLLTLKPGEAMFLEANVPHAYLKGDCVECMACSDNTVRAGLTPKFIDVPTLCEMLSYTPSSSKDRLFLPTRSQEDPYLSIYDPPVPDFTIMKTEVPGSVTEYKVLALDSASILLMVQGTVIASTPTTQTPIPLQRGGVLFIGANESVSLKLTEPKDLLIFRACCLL

[12] = Counterscreen for IDE inhibitors: Luminescence-based cell-based high throughput dose response assay to identify compounds that are cytotoxic to HEK cells. [Related pubchem assays: 434962 (Primary screen (IDE inhibitors in singlicate)), 449730 (Counterscreen (Cytotoxicity in triplicate)), 435028 (Confirmation (IDE inhibitors in triplicate)) …; format: functional; conditions: HEK293
[13] = target: Large T antigen (Simian virus 40, UniProt P03070); format: functional, Betapolyomavirus macacae;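 further: Confirmatory-stage PubChem screen for compounds that inhibit SV40 T antigen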
[14] = target: Phosphoethanolamine/phosphocholine phosphatase (Homo sapiens, UniProt Q8TCT1); test: SAR assay for compounds that inhibit PHOSPHO1. [Related pubchem assays (depositor defined):AID1545, AID1565, AID1574]
[15] = target: DNA dC->dU-editing enzyme APOBEC-3A (Homo sapiens, UniProt P31941); test: A3A deaminase inhibition for selectivity – biochemical, dose response (AID 504722); format: functional
[16] = target: DNA dC->dU-editing enzyme APOBEC-3G (Homo sapiens, UniProt Q9HC16); test: Dose Response confirmation of small molecule APOBEC3G DNA Deaminase Inhibitors via a fluorescence-based single-stranded DNA deaminase assay. [Related pubchem assays (depositor defined):AID493012, AID493028]; format: functional
[17] = target: T5, Insulin-degrading enzyme (Homo sapiens, UniProt P14735); test: Dose Response: Fluorescence polarization-based cell-based high throughput dose response assay for inhibitors of insulin-degrading enzyme (IDE). [Related pubchem assays: 434962 (Primary screen (IDE inhibitors in singlicate)), 449730 (Counterscreen (Cytotoxicity in triplicate)), 435028 (Confirmation (IDE inhibitors in triplicate)), 434984 (Summary …; format: functional
T5 sequence (P14735 whole entry): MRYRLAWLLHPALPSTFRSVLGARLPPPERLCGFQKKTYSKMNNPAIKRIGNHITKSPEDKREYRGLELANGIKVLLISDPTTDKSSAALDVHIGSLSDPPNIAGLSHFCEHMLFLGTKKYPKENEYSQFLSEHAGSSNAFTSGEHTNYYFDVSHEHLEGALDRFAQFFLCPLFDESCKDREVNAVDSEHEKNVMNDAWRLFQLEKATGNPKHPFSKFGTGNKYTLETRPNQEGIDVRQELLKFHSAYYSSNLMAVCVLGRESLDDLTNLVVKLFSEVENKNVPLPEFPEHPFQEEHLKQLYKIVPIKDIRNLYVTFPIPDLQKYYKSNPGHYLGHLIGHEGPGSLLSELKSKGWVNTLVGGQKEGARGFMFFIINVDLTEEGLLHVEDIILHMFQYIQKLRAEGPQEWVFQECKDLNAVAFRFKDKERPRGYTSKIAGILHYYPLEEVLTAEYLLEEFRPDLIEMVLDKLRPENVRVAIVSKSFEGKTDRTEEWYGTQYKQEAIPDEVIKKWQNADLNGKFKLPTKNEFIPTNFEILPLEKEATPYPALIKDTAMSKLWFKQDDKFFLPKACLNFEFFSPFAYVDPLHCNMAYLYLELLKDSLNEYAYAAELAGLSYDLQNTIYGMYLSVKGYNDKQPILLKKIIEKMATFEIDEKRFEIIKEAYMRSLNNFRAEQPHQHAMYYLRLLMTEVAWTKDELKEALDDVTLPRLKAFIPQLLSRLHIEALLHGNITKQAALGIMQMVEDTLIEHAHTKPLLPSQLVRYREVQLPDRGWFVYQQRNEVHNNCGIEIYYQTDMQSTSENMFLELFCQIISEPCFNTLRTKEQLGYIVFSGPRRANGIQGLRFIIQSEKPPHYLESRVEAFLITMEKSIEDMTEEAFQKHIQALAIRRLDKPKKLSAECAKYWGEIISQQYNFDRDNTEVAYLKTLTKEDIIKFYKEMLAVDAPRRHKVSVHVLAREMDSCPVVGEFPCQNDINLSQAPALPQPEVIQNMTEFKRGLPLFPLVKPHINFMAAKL

[18] = target: T6, Alkaline phosphatase, tissue-nonspecific isozyme (Homo sapiens, UniProt P05186); test: potency against alkaline phosphatase TNAP – biochemical, luminescent, dose response, SAR follow-up (AID 1056)
T6 sequence (P05186 whole entry): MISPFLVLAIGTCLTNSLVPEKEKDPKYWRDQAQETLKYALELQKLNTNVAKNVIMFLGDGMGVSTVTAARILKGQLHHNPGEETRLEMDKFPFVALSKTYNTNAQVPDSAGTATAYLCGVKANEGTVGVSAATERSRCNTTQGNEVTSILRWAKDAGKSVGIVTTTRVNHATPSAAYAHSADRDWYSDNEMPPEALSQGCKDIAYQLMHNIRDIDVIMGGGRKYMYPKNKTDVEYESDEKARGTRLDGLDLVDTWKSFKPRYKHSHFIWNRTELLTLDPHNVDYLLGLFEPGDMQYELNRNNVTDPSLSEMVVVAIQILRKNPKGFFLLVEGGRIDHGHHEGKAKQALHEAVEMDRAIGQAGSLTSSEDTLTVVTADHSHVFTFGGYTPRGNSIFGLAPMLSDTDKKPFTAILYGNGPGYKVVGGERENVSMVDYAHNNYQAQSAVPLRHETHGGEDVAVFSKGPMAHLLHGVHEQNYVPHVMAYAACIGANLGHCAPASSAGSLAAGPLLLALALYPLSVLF

[19] = viability loss in CEM21 cells – cell-based, CellTiter-Glo luminescence, cherry-picked, cytotoxicity control for viral fusion inhibitor project, dose response (AID 652042); format: functional;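 further: potency for signal decrease meaning cytotoxicity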
[20] = HIV-1 AD8 envelope cell-cell fusion blockers – cherry-pick, dose response (AID 652062); format: functional, cell-based;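 further: luciferase signal from cell-cell fusion driven by HIV-1 clade B AD8 Env; potency is for inhibitors of fusion seen as a drop in luminescence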
[21] = antiviral protection against BTV-induced cell death – arbovirus, BSR cells, confirmation (AID 1250); format: functional;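 further: protection from viral cytopathic effect measured as cell viability by ATP luminescence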
[22] = blockers of HIV-1 ZM109 envelope-driven cell-cell fusion – HeLa effector, CEM target cells, luciferase, cherry-pick, dose response (AID 652058); format: functional, cell-based;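 further: luciferase signal from HIV-1 Env mediated cell-cell fusion of effector and target cells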
[23] = blockers of HIV-1 envelope-mediated cell-cell fusion – cherry-pick, dose response (AID 652057); format: functional, cell-based
[24] = test system: HEK293; test: EBV LMP1 TES2 canonical NF-kB signalling blockers – cell-based, HEK293, luciferase, cherry-pick, dose response (AID 588343); format: functional; conditions: Homo sapiens
[25] = off-target signal loss in HeLa-CEM21 co-culture – HeLa F-luc CTL cells, cherry-picked, counter-screen for HIV-1 Env fusion inhibitor project, dose response (AID 652040); format: functional, cell-based;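 further: potency for signal decrease marking cytotoxic or nonspecific inhibition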
[26] = target: Interleukin-8 (Homo sapiens, UniProt P10145); test: Dose Response confirmation of uHTS small molecule hits for cystic fibrosis induced NFkb Inhibitors in a PAF-induced IL8 counterscreen.; format: functional; conditions: read-out: IC50_Mean
Sequence of Interleukin-8 (P10145 whole entry): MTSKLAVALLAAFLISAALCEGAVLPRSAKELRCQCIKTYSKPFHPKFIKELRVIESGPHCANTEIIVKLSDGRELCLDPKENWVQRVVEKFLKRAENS

Sequence of FAD-linked sulfhydryl oxidase ALR (P55789 whole entry): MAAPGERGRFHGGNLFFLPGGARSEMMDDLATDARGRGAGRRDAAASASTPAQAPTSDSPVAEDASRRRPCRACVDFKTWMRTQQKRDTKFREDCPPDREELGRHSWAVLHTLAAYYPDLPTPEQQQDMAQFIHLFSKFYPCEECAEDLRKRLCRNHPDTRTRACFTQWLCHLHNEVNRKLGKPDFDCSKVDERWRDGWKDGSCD
Sequence of DNA dC->dU-editing enzyme APOBEC-3A (P31941 whole entry): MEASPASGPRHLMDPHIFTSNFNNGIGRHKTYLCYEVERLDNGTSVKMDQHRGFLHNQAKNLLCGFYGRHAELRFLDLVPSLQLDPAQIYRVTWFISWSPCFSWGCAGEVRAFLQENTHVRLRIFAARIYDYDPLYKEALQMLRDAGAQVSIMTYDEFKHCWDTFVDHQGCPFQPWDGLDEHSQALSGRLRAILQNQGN
Sequence of Glucose-6-phosphate 1-dehydrogenase (P11413 whole entry): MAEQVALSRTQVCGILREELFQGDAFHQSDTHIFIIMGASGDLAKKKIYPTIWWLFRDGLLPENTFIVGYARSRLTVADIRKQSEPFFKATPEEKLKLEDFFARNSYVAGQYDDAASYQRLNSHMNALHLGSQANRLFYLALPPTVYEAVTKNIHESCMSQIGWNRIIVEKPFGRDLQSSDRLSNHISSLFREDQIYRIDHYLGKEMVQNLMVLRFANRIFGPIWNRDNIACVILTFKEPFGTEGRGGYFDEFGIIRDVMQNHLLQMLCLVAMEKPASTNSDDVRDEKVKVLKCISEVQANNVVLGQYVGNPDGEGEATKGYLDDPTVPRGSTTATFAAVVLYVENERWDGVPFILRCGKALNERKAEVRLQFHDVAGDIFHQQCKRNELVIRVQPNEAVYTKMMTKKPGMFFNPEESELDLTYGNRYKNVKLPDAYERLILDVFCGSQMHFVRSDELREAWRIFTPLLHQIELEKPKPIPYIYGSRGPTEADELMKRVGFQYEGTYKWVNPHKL
Sequence of Endoplasmic reticulum aminopeptidase 1 (Q9NZ08 whole entry): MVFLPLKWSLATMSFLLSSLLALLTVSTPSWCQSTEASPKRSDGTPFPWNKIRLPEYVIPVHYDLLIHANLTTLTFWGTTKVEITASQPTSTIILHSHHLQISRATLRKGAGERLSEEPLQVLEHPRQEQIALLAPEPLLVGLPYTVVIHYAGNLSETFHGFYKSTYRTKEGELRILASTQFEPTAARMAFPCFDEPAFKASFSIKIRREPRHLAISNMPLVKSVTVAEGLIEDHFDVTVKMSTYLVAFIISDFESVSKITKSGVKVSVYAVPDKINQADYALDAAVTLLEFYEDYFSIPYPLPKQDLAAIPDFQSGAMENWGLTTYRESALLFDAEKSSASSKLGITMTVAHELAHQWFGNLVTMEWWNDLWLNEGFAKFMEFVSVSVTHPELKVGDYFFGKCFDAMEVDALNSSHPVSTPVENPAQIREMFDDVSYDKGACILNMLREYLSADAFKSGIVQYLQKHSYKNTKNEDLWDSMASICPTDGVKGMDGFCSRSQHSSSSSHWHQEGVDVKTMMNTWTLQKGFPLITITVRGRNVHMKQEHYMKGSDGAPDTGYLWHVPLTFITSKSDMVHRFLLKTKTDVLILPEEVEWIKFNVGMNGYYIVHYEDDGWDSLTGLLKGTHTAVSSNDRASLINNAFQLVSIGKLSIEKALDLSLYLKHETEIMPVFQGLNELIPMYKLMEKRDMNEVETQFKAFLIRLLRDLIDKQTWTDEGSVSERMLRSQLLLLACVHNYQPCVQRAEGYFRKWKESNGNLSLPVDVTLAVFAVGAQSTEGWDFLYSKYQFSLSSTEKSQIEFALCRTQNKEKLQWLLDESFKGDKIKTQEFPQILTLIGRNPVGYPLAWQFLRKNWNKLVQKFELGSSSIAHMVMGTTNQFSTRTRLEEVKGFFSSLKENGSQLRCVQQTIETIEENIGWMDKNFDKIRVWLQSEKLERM
Sequence of DNA dC->dU-editing enzyme APOBEC-3G (Q9HC16 whole entry): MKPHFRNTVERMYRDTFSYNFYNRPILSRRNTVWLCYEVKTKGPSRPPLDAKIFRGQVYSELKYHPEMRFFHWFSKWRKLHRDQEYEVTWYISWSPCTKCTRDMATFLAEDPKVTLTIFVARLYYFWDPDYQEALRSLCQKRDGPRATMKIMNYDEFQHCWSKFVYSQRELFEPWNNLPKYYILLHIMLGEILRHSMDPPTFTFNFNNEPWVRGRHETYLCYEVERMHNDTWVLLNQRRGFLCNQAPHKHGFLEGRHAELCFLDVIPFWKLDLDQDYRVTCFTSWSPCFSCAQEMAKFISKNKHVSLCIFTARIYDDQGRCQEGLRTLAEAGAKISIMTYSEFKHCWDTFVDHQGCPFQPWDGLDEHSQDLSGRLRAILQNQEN
Sequence of Genome polyprotein (P29990 2492-3391 limits assumed): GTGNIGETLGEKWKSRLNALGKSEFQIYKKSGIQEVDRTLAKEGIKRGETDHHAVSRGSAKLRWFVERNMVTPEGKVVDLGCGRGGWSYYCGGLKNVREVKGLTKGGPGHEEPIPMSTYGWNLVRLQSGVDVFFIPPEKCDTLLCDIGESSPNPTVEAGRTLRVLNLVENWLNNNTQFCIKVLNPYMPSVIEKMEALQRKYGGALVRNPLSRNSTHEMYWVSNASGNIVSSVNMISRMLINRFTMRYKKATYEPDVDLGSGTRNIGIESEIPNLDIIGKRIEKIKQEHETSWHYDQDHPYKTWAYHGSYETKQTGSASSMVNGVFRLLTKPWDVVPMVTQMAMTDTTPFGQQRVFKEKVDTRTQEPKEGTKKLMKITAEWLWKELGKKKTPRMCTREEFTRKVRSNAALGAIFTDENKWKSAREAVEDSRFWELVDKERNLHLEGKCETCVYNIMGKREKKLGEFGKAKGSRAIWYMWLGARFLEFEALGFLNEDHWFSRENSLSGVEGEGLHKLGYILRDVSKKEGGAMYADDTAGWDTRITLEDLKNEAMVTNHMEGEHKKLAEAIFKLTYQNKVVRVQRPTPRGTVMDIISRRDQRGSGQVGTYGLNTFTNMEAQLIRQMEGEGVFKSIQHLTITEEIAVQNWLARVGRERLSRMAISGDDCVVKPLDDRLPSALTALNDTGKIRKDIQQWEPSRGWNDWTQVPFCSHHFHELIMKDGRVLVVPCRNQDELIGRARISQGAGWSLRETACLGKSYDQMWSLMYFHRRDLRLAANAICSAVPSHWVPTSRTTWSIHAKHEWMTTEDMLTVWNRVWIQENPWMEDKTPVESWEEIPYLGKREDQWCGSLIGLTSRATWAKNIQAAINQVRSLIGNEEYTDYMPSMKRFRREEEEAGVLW
Sequence of Phosphoethanolamine/phosphocholine phosphatase (Q8TCT1 whole entry): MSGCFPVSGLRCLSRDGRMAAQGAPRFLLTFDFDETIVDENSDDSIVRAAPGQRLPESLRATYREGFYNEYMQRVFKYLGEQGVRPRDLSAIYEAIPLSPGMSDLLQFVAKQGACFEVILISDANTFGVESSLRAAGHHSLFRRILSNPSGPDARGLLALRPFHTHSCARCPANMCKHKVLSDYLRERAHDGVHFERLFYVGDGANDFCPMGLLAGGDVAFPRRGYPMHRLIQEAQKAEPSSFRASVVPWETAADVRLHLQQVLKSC
Sequence of Large T antigen (P03070 whole entry): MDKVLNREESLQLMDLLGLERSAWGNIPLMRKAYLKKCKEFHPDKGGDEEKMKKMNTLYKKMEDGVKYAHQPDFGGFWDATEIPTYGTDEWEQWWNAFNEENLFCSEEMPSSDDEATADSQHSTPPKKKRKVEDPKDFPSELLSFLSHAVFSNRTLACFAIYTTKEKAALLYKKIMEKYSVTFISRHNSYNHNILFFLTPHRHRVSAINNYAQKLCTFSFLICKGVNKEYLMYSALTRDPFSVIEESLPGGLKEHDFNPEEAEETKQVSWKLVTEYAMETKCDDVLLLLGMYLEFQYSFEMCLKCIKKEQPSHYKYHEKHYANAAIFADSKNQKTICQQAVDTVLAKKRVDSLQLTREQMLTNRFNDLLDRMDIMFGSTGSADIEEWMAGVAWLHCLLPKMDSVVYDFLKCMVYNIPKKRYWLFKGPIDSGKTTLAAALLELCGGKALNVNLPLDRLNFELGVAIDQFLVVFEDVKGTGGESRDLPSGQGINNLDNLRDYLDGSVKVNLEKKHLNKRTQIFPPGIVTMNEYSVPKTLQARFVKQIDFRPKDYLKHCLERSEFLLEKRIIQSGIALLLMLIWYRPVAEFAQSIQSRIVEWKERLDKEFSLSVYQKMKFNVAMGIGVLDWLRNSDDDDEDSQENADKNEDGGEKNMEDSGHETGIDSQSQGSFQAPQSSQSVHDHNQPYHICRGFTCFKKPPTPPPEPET

IC50 [1]: 3.12 µM (active) | IC50 [2]: 24.9 µM (inactive)
Compound: Cc1ccc(-n2c(SCC(=O)N3Cc4ccccc4CC3C(=O)O)nnc2-c2cccnc2)c(C)c1 (stereo unspecified)

Compound: O=C(O)c1ccccc1NS(=O)(=O)c1cccc(-n2sc3ccccc3c2=O)c1
IC50 [3]: 5.15 µM (active) | IC50 [4]: 46.4 µM (active) | AC50 [5]: 0.73 µM (active) | IC50 [6]: 17.6 µM (active) | CC50 [7]: > 40 µM (active) | IC50 [8]: 6.8 µM (active) | IC50 [9]: 3.45 µM (active) | AC50 [10]: 0.243 µM (active) | IC50 [11]: 0.707 µM (active) | IC50 [12]: 34.8 µM (not active) | IC50 [13]: 13.2 µM (active) | IC50 [14]: 0.808 µM (active) | IC50 [15]: > 100 µM (inactive) | IC50 [16]: 9.14 µM (active) | IC50 [17]: 2.1 µM (active) | IC50 [18]: > 100 µM (inactive)

Compound: Clc1ccccc1C1=Nn2c(nnc2-c2ccncc2)SC1
AC50 [19]: 63.6 µM (active) | AC50 [20]: 1.83 µM (active) | IC50 [21]: 22.6 µM (active) | AC50 [22]: 1.45 µM (active) | AC50 [23]: 3.15 µM (active) | AC50 [24]: 14.2 µM (active) | AC50 [25]: 1.96 µM (active) | IC50 [26]: 8.72 µM (active)
